Consider three compounds from article PMC3375280 (PLoS ONE, 2012).

Each structure is given as a SMILES string. Positions count from the first letter of the chain named. Some results are limits rather than exact numbers.

The target of test [1] is T1, AT1 S105A mutant receptor (Rattus norvegicus, UniProt P25095, S105A).
T1 construct: expressed in transfected cells; host or cells: COS1
T1 sequence (P25095 1-359 S105A): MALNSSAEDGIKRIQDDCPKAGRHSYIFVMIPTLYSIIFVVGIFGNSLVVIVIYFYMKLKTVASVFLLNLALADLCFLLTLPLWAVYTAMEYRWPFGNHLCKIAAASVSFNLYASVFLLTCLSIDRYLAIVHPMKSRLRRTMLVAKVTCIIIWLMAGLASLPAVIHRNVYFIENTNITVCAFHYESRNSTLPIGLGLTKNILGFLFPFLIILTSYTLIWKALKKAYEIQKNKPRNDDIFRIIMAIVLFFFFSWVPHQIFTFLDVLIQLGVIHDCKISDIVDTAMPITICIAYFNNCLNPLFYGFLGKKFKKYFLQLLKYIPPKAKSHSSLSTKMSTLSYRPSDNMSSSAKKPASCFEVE
The test can be described thus: competition binding, S105A mutant. The conditions noted are these: for Kd: S105A (S105 in the source), COS1 membranes, read-out: Binding affinity (Kd); for Kd ratio relative to WT (in parentheses): S105A / WT. As to the method:
(§1) The Kd and Bmax values of receptor binding were determined by ^125I-[Sar^1, Ile^8] […] Membranes expressing the WT or mutant AT1 receptors were incubated with 100 pM ^125I-[Sar^1, Ile^8] […] The binding reaction was terminated by filtering the incubation mixture through Whatman GF/C glass filters, and the residues were extensively washed further with binding buffer. The bound ligand fraction was determined from the counts per minute (cpm) remaining on the membrane. Binding kinetics values were determined as previously described.

Test [2] concerns the target T2, AT1 Y113F mutant receptor (Rattus norvegicus, UniProt P25095, Y113F).
T2 construct: expressed in transfected cells; host or cells: COS1
T2 sequence (P25095 1-359 Y113F): T1 sequence (P25095 1-359 S105A) with A105S, Y113F
Briefly: competition binding, Y113F mutant. As to conditions: for Kd ratio relative to WT (in parentheses): Y113F / WT; for Kd: Y113F, COS1 membranes, read-out: Binding affinity (Kd). As for the experimental part:
as §1

Test [3] concerns the target T3, AT1 C76A/C289A mutant receptor (Rattus norvegicus, UniProt P25095, C289A/C76A).
T3 construct: expressed in transfected cells; host or cells: COS1
T3 sequence (P25095 1-359 C76A/C289A): T1 sequence (P25095 1-359 S105A) with C76A, A105S, C289A
The test can be described thus: competition binding, C76A/C289A mutant. The conditions noted are these: for Kd ratio relative to WT (in parentheses): C76A/C289A / WT; for Kd: C76A/C289A, COS1 membranes, read-out: Binding affinity (Kd). As to the method: as §1

Test [4] has as its target T4, AT1 C76A/S107C/C289A mutant receptor (Rattus norvegicus, UniProt P25095, C289A/C76A/S107C).
T4 construct: expressed in transfected cells; host or cells: COS1
T4 sequence (P25095 1-359 C76A/S107C/C289A): T1 sequence (P25095 1-359 S105A) with C76A, A105S, S107C, C289A
The test can be described thus: competition binding, C76A/S107C/C289A mutant. As to conditions: for Kd ratio relative to WT (in parentheses): C76A/S107C/C289A / WT; for Kd: C76A/S107C/C289A, COS1 membranes, read-out: Binding affinity (Kd). As for the experimental part:
as §1

The target of test [5] is T5, AT1 C76A/S109C/C289A mutant receptor (Rattus norvegicus, UniProt P25095, C289A/C76A/S109C).
T5 construct: expressed in transfected cells; host or cells: COS1
T5 sequence (P25095 1-359 C76A/S109C/C289A): T1 sequence (P25095 1-359 S105A) with C76A, A105S, S109C, C289A
The test can be described thus: competition binding, C76A/S109C/C289A mutant. As to conditions: for Kd ratio relative to WT (in parentheses): C76A/S109C/C289A / WT; for Kd: C76A/S109C/C289A, COS1 membranes, read-out: Binding affinity (Kd). As for the experimental part: as §1

Test [6] concerns the target T6, AT1 C76A/S115C/C289A mutant receptor (Rattus norvegicus, UniProt P25095, C289A/C76A/S115C).
T6 construct: expressed in transfected cells; host or cells: COS1 cells (membranes)
T6 sequence (P25095 1-359 C76A/S115C/C289A): T1 sequence (P25095 1-359 S105A) with C76A, A105S, S115C, C289A
The test can be described thus: competition binding, C76A/S115C/C289A mutant. The conditions noted are these: for Kd ratio relative to WT (in parentheses): C76A/S115C/C289A / WT; for Kd: C76A/S115C/C289A, COS1 membranes, read-out: Binding affinity (Kd). As for the experimental part: as §1

A word on the Kd: it is the concentration at which binding is half-saturated. Regarding `CCCc1nc(C(C)(C)O)c(C(=O)O)n1Cc1ccc(-c2ccccc2-c2nnn[nH]2)cc1` [Olmesartan, olmesartan, reference compound], the Kd in test [1] was found to be 6.7 ± 3.8 nM; in test [2], 52 ± 7 nM; in test [3], 5.7 ± 1.6 nM; in test [4], 6.2 ± 3.2 nM; in test [5] it was 29 ± 5 nM; in test [6], 6.5 ± 1.8 nM. Moreover, the “Kd ratio relative to WT (in parentheses)” value in test [2] was 23 fold; in test [2] (listed as olmesartan), more than 10 fold; in test [3] it was 2.5 fold; in test [4], 2.7 fold; in test [5], 13 fold; in test [6], 2.8 fold.

Take `CCCc1nc(C(C)(C)O)c(C(N)=O)n1Cc1ccc(-c2ccccc2-c2nnn[nH]2)cc1` [R239470]: the Kd in test [1] was 3.2 ± 2 nM; in test [2], 17 ± 3 nM; in test [3], 2.4 ± 0.5 nM; in test [4], 1.8 ± 0.4 nM; in test [5] it was 11 ± 3 nM; in test [6], 4.2 ± 1.6 nM. Further, the “Kd ratio relative to WT (in parentheses)” value in test [1] is given as 4.0 fold; in test [2], 21 fold; in test [3], 3.0 fold; in test [4] it was 2.3 fold; in test [5] it was 14 fold; in test [6], 5.3 fold.

Regarding `CCCc1nc(C(C)(C)O)c(C(N)=O)n1Cc1ccc(-c2cc(Cc3ccc(O)cc3)ccc2-c2nnn[nH]2)cc1` [R794847], the Kd in test [1] is 37 ± 23 nM; in test [2] it was 388 ± 54 nM; in test [3], 73 ± 20 nM; in test [4], 102 ± 19 nM; in test [5] it was 96 ± 18 nM; in test [6], 657 ± 114 nM. Moreover, the “Kd ratio relative to WT (in parentheses)” value in test [1] was determined as 0.8 fold; in test [2], 8.1 fold; in test [3] it was 1.5 fold; in test [4], 2.1 fold; in test [5], 2.0 fold; in test [6] it was 14 fold.
